Results published in patent US10441588B2, “Methods and compositions for treating bacterial infection” (Curators of the University of Missouri, priority 2012, dated 2019).
Structures can show the parent of a compound that is named as a salt. Where two headings read alike, the source gives them in different places.

Experiments:
[1] = tested on: S. aureus biofilm; assay: S. aureus biofilm inhibition, optical density, test/control; format: cell-based, Staphylococcus aureus; conditions: Staphylococcus aureus, growth of biofilm test/control by optical density
[2] = tested on: S. aureus; assay: S. aureus growth inhibition, optical density, test/control; format: cell-based, Staphylococcus aureus; conditions: Staphylococcus aureus, growth of bacteria test/control by optical density
[3] = tested on: S. epidermis biofilm; assay: S. epidermis biofilm inhibition, optical density, test/control; conditions: growth of biofilm test/control by optical density; for activity at 5 µM / activity at 50 µM: Staphylococcus epidermidis; for activity at 5 µM: read-out: S. epidermis Biofilm inhibition 5 μM vs. (−) Control, 5 μM; for activity at 50 µM: read-out: S. epidermis Biofilm inhibition 50 μM vs. (−) Control, 50 μM
[4] = 5 μM, read-out: S. aureus Biofilm Inhibition 5 μM vs. (−) Control
[5] = 50 μM, read-out: S. aureus Biofilm Inhibition 50 μM vs. (−) Control
[6] = read-out: S. aureus Biofilm Inhibition 5 μM vs. (−) Control, 5 μM

Compound | activity at 100 µM [1] [%] | activity at 100 µM [2] [%] | activity at 5 µM [3] [%] | further results
COCCSc1nc2c(c(=O)n1CCOc1ccc(OC)cc1)C(C)(C)Cc1ccccc1-2 [CCG-204060] | 79 | 91.2 |  | 
C#CCSc1nc2c(c(=O)n1CC=C)C(C)(C)Cc1cc(C(=O)c3ccccc3)ccc1-2 [CCG-204080, 3-allyl-8-benzoyl-5,5-dimethyl-2-(prop-2-yn-1-ylthio)-5,6-dihydrobenzo[h]quinazolin-4(3H)-one] | 73.4 | 110 |  | 
COCCOc1nc(SCCOC)nc(-c2ccccc2)c1C [CCG-205361, 4-(2-Methoxyethoxy)-2-((2-methoxyethyl)thio)-5-methyl-6-phenylpyrimidine] | 67.7 | 89 |  | 
C=CCOc1nc(SCCOC)nc(-c2ccccc2)c1C [CCG-205382, 4-(Allyloxy)-2-((2-methoxyethyl)thio)-5-methyl-6-phenylpyrimidine] | 55.2 | 93.4 |  | 
COCCSc1nc2c(c(=O)n1Cc1ccc(-c3noc(C)n3)cc1)C(C)(C)Cc1ccccc1-2 [CCG-205387, 2-((2-Methoxyethyl)thio)-5,5-dimethyl-3-(4-(5-methyl-1,2,4-oxadiazol-3-yl)benzyl)-5,6-dihydrobenzo[h]quinazolin-4(3H)-one] | 72.3 | 115 |  | 
COCCSc1nc2c(c(=O)n1CCCO)C(C)(C)Cc1ccccc1-2 [CCG-205390, 3-(3-Hydroxypropyl)-2-((2-methoxyethyl)thio)-5,5-dimethyl-5,6-dihydrobenzo[h]quinazolin-4(3H)-one] | 52.5 | 89.1 |  | S. epidermis Biofilm inhibition 10 μM vs. (−) Control ([3]; 10 μM): 0.921
C=CCn1c(SCC)nc2c(c1=O)C(C)(C)Cc1cc(OCC(C)C)ccc1-2 [CCG-205426, 3-allyl-2-(ethylthio)-8-isobutoxy-5,5-dimethyl-5,6-dihydrobenzo[h]quinazolin-4(3H)-one] | 77.8 | 114 |  | 
C=CCn1c(SCCOC)nc2c(c1=O)C(C)(C)Cc1cc(C(=O)OC)ccc1-2 [CCG-205435] |  | 126 |  | activity at 10 µM [1]: 29.3%
COCCSc1nc2c(c(=O)n1CC1CC1)C(C)(C)Cc1ccccc1-2 [CCG-205444, 3-(Cyclopropylmethyl)-2-((2-methoxyethyl)thio)-5,5-dimethyl-5,6-dihydrobenzo[h]quinazolin-4(3H)-one] | 66.2 | 104 |  | 
COCCSc1nc(OCC2CC2)c2c(n1)-c1ccccc1CC2(C)C [CCG-205445, 4-(Cyclopropylmethoxy)-2-((2-methoxyethyl)thio)-5,5-dimethyl-5,6-dihydrobenzo[h]quin-azoline] | 71.1 | 107 |  | 
C=CCn1c(SCCOC)nc2c(c1=O)C1(CCOCC1)Cc1ccccc1-2 [CCG-205453, 3-Allyl-2-((2-methoxyethyl)thio)-2′,3′,5′,6′-tetrahydro-3H-spiro[benzo[h]quinazoline-5,4′-pyran]-4(6H)-one] | 79.6 | 102 |  | 
C=CCn1c(SCC)nc2c(c1=O)C(C)(C)Cc1cc(OC(C)C)ccc1-2 [CCG-205480] |  | 115 |  | activity at 10 µM [1]: 52.3%
C=CCn1c(SCC)nc2c(c1=O)C(C)(C)Cc1cc(OCCN3C(=O)c4ccccc4C3=O)ccc1-2 [CCG-206176, 2-(2-((3-allyl-2-(ethylthio)-5,5-dimethyl-4-oxo-3,4,5,6-tetrahydrobenzo[h]quinazolin-8-yl)oxy)ethyl)isoindoline-1,3-dione] | 79.5 | 100 |  | 
C=CCn1c(SCC)nc2c(c1=O)C(C)(C)Cc1cc(OCC#N)ccc1-2 [CCG-206178] |  | 104 |  | activity at 10 µM [1]: 56.5%
C=CCn1c(SCCOC)nc2c(c1=O)C1(CCN(C(C)=O)CC1)Cc1ccccc1-2 [CCG-206230, 1′-Acetyl-3-allyl-2-((2-methoxyethyl)thio)-3H-spiro[benzo[h]quinazoline-5,4′-piperidin]-4(6H)-one] |  | 97 |  | activity at 10 µM [1]: 85.5%
C=CCn1c(SCCOC)nc2c(c1=O)C1(CCN(C(=O)c3ccccc3)CC1)Cc1ccccc1-2 [CCG-206231, 3-Allyl-1′-benzoyl-2-((2-methoxyethyl)thio)-3H-spiro[benzo[h]quinazoline-5,4′-piperidin]-4(6H)-one] | 53 | 111 |  | activity at 10 µM [1]: 52.5%

Compound | activity at 100 µM [1] [%] | activity at 100 µM [2] [%] | activity at 5 µM [3] [%] | further results
C=CCn1c(SCCOC)nc2c(c1=O)C1(CCN(C=O)CC1)Cc1ccccc1-2 [CCG-206234, 3-Allyl-2-((2-methoxyethyl)thio)-4-oxo-4,6-dihydro-3H-spiro[benzo[h]quinazoline-5,4′-piperidine]-1′-carbaldehyde] | 65 | 99 |  | activity at 10 µM [1]: 101%
C=CCn1c(SCCOC)nc2c(c1=O)C1(CCN(C(=O)c3ccc(Cl)cc3)CC1)Cc1ccccc1-2 [CCG-206235, 3-Allyl-1′-(4-chlorobenzoyl)-2-((2-methoxyethyl)thio)-3H-spiro[benzo[h]quinazoline-5,4′-piperidin]-4(6H)-one] | 77.6 | 106 |  | 
C=CCn1c(SCC(F)(F)F)nc2c(c1=O)C(C)(C)Cc1ccc(OC)cc1-2 [CCG-206352] | 47 | 101 |  | activity at 10 µM [1]: 60.4%
C=CCn1c([S+]([O-])CC)nc2c(c1=O)C(C)(C)Cc1ccc(OC)cc1-2 (centres unmarked) [CCG-206355] | 74.7 | 96 |  | 
CCSc1nc(OCC(F)(F)F)c2c(n1)-c1cc(OC)ccc1CC2(C)C [CCG-206356] | 59.1 | 110 |  | 
C=CCn1c(SCCOC)nc2c(c1=O)C1(CCN(C(=O)OC(C)(C)C)CC1)Cc1cc(OC)ccc1-2 [CCG-206660, tert-butyl 3-allyl-8-methoxy-2-((2-methoxyethyl)thio)-4-oxo-4,6-dihydro-3H-spiro[benzo[h]quinazoline-5,4′-piperidine]-1′-carboxylate] |  |  | 71.5 | activity at 50 µM [3]: 64.3%; activity at 5 µM [1, 4]: 46%; activity at 50 µM [1, 5]: 60.1%
C=CCn1c(SCCOC)nc2c(c1=O)C1(CCNCC1)Cc1cc(OC)ccc1-2 [CCG-206661, 3-allyl-8-methoxy-2-((2-methoxyethyl)thio)-3H-spiro[benzo[h]quinazoline-5,4′-piperidin]-4(6H)-one hydrochloride] |  |  | 98.7 | activity at 5 µM [1, 6]: 86.9%
C=CCn1c(SCC)nc2c(c1=O)C1(CCN(C(=O)OC(C)(C)C)CC1)Cc1cc(OC)ccc1-2 [CCG-206663, tert-butyl 3-allyl-2-(ethylthio)-8-methoxy-4-oxo-4,6-dihydro-3H-spiro[benzo[h]quinazoline-5,4′-piperidine]-1′-carboxylate] |  |  | 73.4 | activity at 50 µM [3]: 76.1%; activity at 5 µM [1, 4]: 49.9%
C=CCn1c(SCC)nc2c(c1=O)C1(CCNCC1)Cc1cc(OC)ccc1-2 [CCG-206664, 3-allyl-2-(ethylthio)-8-methoxy-3H-spiro[benzo[h]quinazoline-5,4′-piperidin]-4(6H)-one hydrochloride] |  |  | 87.7 | activity at 5 µM [1, 6]: 89%; activity at 50 µM ([1]; read-out: S. aureus Biofilm Inhibition 50 μM vs. (−) Control, 50 μM): 2.8%
C=CCn1c(SCCOC)nc2c(c1=O)C1(CCN(C(=O)OC(C)(C)C)C1)Cc1ccccc1-2 (centres unmarked) [CCG-208860, tert-butyl 3-allyl-2-((2-methoxyethyl)thio)-4-oxo-4,6-dihydro-3H-spiro[benzo[h]quinazoline-5,3′-pyrrolidine]-1′-carboxylate] |  |  | 85 | activity at 50 µM [3]: 79.8%; activity at 5 µM [1, 4]: 70.4%; activity at 50 µM [1, 5]: 46.4%
C=CCn1c(SCCOC)nc2c(c1=O)C1(CCN(Cc3ccccc3)CC1)Cc1cc(OC)ccc1-2 [CCG-208982, 3-allyl-1′-benzyl-8-methoxy-2-((2-methoxyethyl)thio)-3H-spiro[benzo[h]quinazoline-5,4′-piperidin]-4(6H)-one] |  |  | 98.7 | activity at 50 µM [3]: 66%; activity at 5 µM [1, 4]: 76.5%; activity at 50 µM [1, 5]: 31.9%
C=CCn1c(SCCOC)nc2c(c1=O)C1(CCN(C(=O)NC)CC1)Cc1cc(OC)ccc1-2 [CCG-211970, 3-allyl-8-methoxy-2-((2-methoxyethyl)thio)-N-methyl-4-oxo-4,6-dihydro-3H-spiro[benzo[h]quinazoline-5,4′-piperidine]-1′-carboxamide] |  |  | 79 | activity at 50 µM [3]: 67%; activity at 5 µM [1, 4]: 69%; activity at 50 µM [1, 5]: 58%
C=CCn1c(SCCOC)nc2c(c1=O)C1(CCN(C(=O)Nc3ccccc3)CC1)Cc1cc(OC)ccc1-2 [CCG-211971, 3-allyl-8-methoxy-2-((2-methoxyethyl)thio)-4-oxo-N-phenyl-4,6-dihydro-3H-spiro[benzo[h]quinazoline-5,4′-piperidine]-1′-carboxamide] |  |  | 125 | activity at 50 µM [3]: 69%
COc1ccc2c(c1)CC1(CCNCC1)c1c(OC)nc(SCC#N)nc1-2 [CCG-212014, 2((4,8-dimethoxy-6H-spiro[benzo[h]quinazoline-5,4′-piperidin]-2-yl)thio)acetonitrile] |  |  | 105 | activity at 50 µM [3]: 63%; activity at 5 µM [1, 4]: 77%; activity at 50 µM [1, 5]: 52%
COc1ccc2c(c1)CC1(CCNCC1)c1c(OCC#N)nc(SCC#N)nc1-2 [CCG-212015, 2-((4-(cyanomethoxy)-8-methoxy-6H-spiro[benzo[h]quinazoline-5,4′-piperidin]-2-yl)thio)acetonitrile] |  |  | 93 | activity at 50 µM [3]: 48%; activity at 5 µM [1, 4]: 94%; activity at 50 µM [1, 5]: 33%
